According to patent publication US20250361241A1, “HPK1 INHIBITOR AND MEDICAL USE THEREOF” (Betta Pharmaceuticals Co., Ltd., priority 2022, published 2025):
Several values for one entry are separate records, joined by “and”; a condition that tells them apart may be missing. Equal values may be shown once.

Legend:
HPK1 = HPK1 (Homo sapiens (Human), UniProt Q92918); test: HPK1 enzyme activity detection (1 mM ATP system), ADP-Glo with MBP substrate, Pharmacological Experiment 2; assay type: biochemical
Protocol: (§1) Pharmacological Experiment 2: […] The test compound was serially diluted using DMSO to 200 times the detection concentration. […] Centrifuge at 1000×g for 30 seconds and incubate at 25° C. for 15 minutes. • (5) Adding ATP and substrate: Add 2 μL of 2×ATP-MBP solution to the 384-well plate and centrifuge at 1000×g for 30 seconds. Seal the plate with a sealing film and incubate at 25° C. for 60 minutes. • (6) Add ADP-Glo reagent: Add 4 μL ADP-Glo reagent (Promega, V9103) to the 384-well plate, centrifuge at 1000×g for 30 seconds, and incubate at 25° C. for 60 minutes. • (7) Detection of luminescent signal; Add 8 μL of luminescent detection reagent (Promega, V9103) to a 384-well plate, centrifuge at 1000×g for 30 seconds, and incubate at 25° C. for 60 minutes. The chemiluminescent signal was read using a BMG instrument. • (8) Calculation of percentage inhibition rate: […] See Table 2 for the enzymatic IC 50 data of the example compounds on HPK1.

GLK = GLK (Homo sapiens (Human), UniProt Q8IVH8); test: GLK kinase assay (1 mM ATP system), ADP-Glo; assay type: biochemical
Protocol: as §1, with “Solution” for “Pharmacological Experiment 2:”, “Add” for “Adding”, “signal:” for “signal;”, “microplate reader.” for “instrument.”, “GLK kinase IC50” for “enzymatic IC 50”

[1] = tested on: human peripheral blood mononuclear cells; test: Detection of IFN-γ secretion in human peripheral blood mononuclear cells (anti-CD3/CD28 beads, ELISA); assay type: cell-based; settings: for Maximum induction factor: IFN-γ secretion, human PBMC; for EC3x: concentration for IFN-γ secretion of human PBMC to reach 3 times the baseline, 3 days
Protocol: Pharmacological Experiment 4: Detection of IFN-γ Secretion in Human Peripheral Blood Monocytes
• (1) Take human peripheral blood mononuclear cells frozen in liquid nitrogen, thaw in a 37° C. water bath, add 5 mL of preheated RPMI-1640 complete medium (containing 10% fetal bovine serum and penicillin/streptomycin), centrifuge at 500 g for 10 minutes, and discard the supernatant; • (2) Resuspend the cells in RPMI-1640 complete medium, adjust the density to 5×10^6 cells/mL, inoculate in a low-adhesion 6-well plate (Corning, 3471), and culture at 37° C. for 2 days; • (3) Collect cultured human peripheral blood mononuclear cells, centrifuge at 500 g for 10 min, and discard the supernatant; • (4) Resuspend the cells in RPMI-1640 complete medium, adjust the density to 1×10^6 cells/mL, and inoculate them in a round-bottom 96-well plate (Jet Biofil, TCP-002-096), with 100 μL per well; • (5) Add 50 μL of the test compound to each well and incubate at 37° C. for 30 min; • (6) Take human anti-CD3/CD28 magnetic beads (Miltenyi, 130-091-441), wash once with RPMI-1640 complete medium, and adjust the density to 0.5×106 beads/mL for later use; • (7) After the compound incubation, 50 μL of anti-human CD3/CD28 magnetic beads were added to each well and cultured at 37° C. for 3 days, • (8) The cell culture supernatant was obtained and the IFN-γ secretion was detected using the Human IFN-gamma DuoSet ELISA kit (R&D, DY285B-05); • (9) The log value of concentration was used as the X-axis and the IFN-γ secretion amount was used as the Y-axis. The “log (agonist) vs. response−variable slope” equation of the analysis software GraphPad Prism 7 was used to fit the dose-effect curve, thereby obtaining the EC3x value and the maximum induction factor of the compound for the secretion of IFN-γ from human peripheral blood mononuclear cells to reach 3 times the baseline.

Sequence of HPK1 (Q92918 whole entry, species assumed): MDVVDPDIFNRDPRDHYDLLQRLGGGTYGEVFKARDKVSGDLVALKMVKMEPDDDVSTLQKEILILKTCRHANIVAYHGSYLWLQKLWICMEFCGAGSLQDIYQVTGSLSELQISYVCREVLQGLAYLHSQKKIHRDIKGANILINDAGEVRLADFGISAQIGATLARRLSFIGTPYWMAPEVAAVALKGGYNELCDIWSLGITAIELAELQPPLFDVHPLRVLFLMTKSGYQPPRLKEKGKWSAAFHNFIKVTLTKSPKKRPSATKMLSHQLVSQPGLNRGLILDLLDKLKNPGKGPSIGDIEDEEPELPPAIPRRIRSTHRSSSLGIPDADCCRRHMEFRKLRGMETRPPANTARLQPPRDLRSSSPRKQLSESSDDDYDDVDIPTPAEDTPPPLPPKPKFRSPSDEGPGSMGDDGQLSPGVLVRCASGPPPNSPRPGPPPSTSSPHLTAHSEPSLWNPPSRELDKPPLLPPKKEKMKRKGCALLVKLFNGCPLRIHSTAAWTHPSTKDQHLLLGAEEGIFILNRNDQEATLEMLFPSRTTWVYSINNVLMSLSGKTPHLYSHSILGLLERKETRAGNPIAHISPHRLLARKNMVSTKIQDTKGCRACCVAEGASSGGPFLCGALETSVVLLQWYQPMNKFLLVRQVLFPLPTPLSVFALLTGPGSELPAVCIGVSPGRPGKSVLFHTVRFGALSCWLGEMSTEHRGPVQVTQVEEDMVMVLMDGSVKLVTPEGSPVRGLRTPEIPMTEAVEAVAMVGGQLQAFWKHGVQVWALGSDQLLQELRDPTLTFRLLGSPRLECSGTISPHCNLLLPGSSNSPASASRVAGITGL
Sequence of GLK (Q8IVH8 whole entry, species assumed): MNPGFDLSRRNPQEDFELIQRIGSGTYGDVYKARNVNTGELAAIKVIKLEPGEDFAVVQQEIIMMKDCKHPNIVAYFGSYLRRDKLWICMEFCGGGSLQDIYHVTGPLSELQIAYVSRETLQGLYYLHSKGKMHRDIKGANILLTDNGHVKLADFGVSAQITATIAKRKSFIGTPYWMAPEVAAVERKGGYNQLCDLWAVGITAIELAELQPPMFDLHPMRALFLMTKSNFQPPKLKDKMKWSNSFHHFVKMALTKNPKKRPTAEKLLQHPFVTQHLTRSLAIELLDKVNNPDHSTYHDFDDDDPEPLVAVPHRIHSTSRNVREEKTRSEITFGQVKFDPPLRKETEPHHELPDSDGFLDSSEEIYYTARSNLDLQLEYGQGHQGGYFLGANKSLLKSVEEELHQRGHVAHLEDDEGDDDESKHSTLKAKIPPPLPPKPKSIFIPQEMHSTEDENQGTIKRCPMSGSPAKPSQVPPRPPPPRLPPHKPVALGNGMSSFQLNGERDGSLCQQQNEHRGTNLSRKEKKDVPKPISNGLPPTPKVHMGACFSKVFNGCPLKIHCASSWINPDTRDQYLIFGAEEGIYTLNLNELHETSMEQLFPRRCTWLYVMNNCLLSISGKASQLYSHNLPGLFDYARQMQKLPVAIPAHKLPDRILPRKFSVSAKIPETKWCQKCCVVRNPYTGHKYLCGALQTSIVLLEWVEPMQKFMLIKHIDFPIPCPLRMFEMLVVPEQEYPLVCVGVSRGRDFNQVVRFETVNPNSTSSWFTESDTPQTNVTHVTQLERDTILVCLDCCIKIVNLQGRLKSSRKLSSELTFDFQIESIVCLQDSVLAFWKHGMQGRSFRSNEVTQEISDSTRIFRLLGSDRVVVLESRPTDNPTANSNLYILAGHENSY

In the case of CN(C)C1COC2(CCOCC2)c2ccc(Nc3ccc(-c4cnc5cc(F)ccn45)c4c3C(=O)NC4)nc21 (centres unmarked) [Compound 49, 7-((8′-(DIMETHYLAMINO)-2,3,5,6,7′,8′-HEXAHYDROSPIRO[PYRAN-4,5′-PYRAN[4,3-B]PYRIDINE]-2′-YL)AMINO)-4-(7-FLUOROIMIDAZOLE[1,2-A]PYRIDIN-3-YL)ISOINDOL-1-ONE], the IC50 (HPK1) is reported as 4.44 nM, the IC50 (GLK) is reported as 338 nM and the Maximum induction factor [1] is reported as 10.7 and 5.7. The “EC3x” value [1] was 152 nM and 294 nM.

“4-(7-FLUOROIMIDAZO[1,2-A]PYRIDIN-3-YL)-7-((2,3,5,6,7′,8′-HEXAHYDRO-6′H-SPIRO[PYRAN-4,5′-[1,7]NAPHTHYRIDINE]-2′-YL)AMINO)ISOINDOL-1-ONE [Compound 87]” gave an IC50 (HPK1) of 5.12 nM, an IC50 (GLK) of 724 nM and a Maximum induction factor [1] of 11.2. For the same compound, the “EC3x” value [1] was 193 nM.

O=C1NCc2c(-c3cnc4cc(Cl)ccn34)ccc(Nc3ccc4c(n3)C(N3CCCC3)CC43CCOCC3)c21 (centres unmarked) [Compound 103] gave an IC50 (HPK1) of 4.67 nM, an IC50 (GLK) of 291 nM and a Maximum induction factor [1] of 5.3. The “EC3x” value [1] was 123 nM.

In the case of Cc1ccn2c(-c3ccc(Nc4ccc5c(n4)CCCC54CCOCC4)c4c3CNC4=O)cnc2c1 [Compound 121], the IC50 (HPK1) is reported as 3.35 nM, the IC50 (GLK) is reported as 679 nM and the Maximum induction factor [1] is reported as 19.4. For the same compound, the “EC3x” value [1] was 140 nM.

O=C1NCc2c(-c3cnc4cc(F)ccn34)ccc(Nc3ccc4c(n3)C(N3C5CCC3COC5)CC43CCOCC3)c21 (centres unmarked) [Compound 115] was tested, and the IC50 (HPK1) was 7.15 nM, the Maximum induction factor [1] was 9.6 and the “EC3x” value [1] was 225 nM.

Work on CN(C)C1CC2(CCOCC2)c2ccc(Nc3ccc(-c4cnc5cc(C6CC6)ccn45)c4c3C(=O)NC4)nc21 (centres unmarked) [Compound 164, 4-(7-CYCLOPROPYLIMIDAZO[1,2-A]PYRIDIN-3-YL)-7-((7-(DIMETHYLAMINO)-2′,3′,5′,6,6′,7-HEXAHYDROSPIRO[CYCLOPENTANE[B]PYRIDINE-5,4′-PYRAN]-2-YL)AMINO)ISOINDOL-1-ONE] yielded an IC50 (HPK1) of 10.6 nM, an IC50 (GLK) of 105 nM and a Maximum induction factor [1] of 9.2. For the same compound, the “EC3x” value [1] was 458 nM.

O=C1NCc2c(-c3cnc4cc(Cl)ccn34)ccc(Nc3ccc4c(n3)CCCC43CCOCC3)c21 [Compound 122] gave an IC50 (HPK1) of 3.21 nM, an IC50 (GLK) of 455 nM and a Maximum induction factor [1] of 16.2. The “EC3x” value [1] was 56 nM.

In the case of CN(C)C1CC2(CCOC2)c2ccc(Nc3ccc(-c4cnc5cc(OC(F)F)ccn45)c4c3C(=O)NC4)nc21 (centres unmarked) [Compound 172, 4-(7-(DIFLUOROMETHOXY)IMIDAZO[1,2-A]PYRIDIN-3-YL)-7-((7-(METHYLAMINO)-4′,5′,6,7-TETRAHYDRO-2′-H-PYRIDO[CYCLOPENTYL[B]PYRIDINE-5,3′-FURAN]-2-YL)AMINO)ISOINDOLIN-1-ONE], the IC50 (HPK1) is reported as 13.8 nM and the IC50 (GLK) is reported as 1120 nM.

In the case of O=C1NCc2c(-c3cnc4cc(F)ccn34)ccc(Nc3ccc4c(n3)C(NCC3CC3)CC43CCOCC3)c21 (centres unmarked) [Compound 117], the IC50 (HPK1) is reported as 5.04 nM and the IC50 (GLK) is reported as 562 nM.

Compound CN(C)C1CC2(CCOCC2)c2ccc(Nc3ccc(-c4cnn5cc(F)ccc45)c4c3C(=O)NC4)nc21 (centres unmarked) [Compound 36] has an IC50 (HPK1) of 2.73 nM and an IC50 (GLK) of 78 nM.

For CN(C1CC1)C1CC2(CCOCC2)c2ccc(Nc3ccc(-c4cnc5cc(F)ccn45)c4c3C(=O)NC4)nc21 (centres unmarked) [Compound 61, 7-((7-(CYCLOPROPYL(METHYL)AMINO)-2′,3′,5′,6,6′,7-HEXAHYDROSPIRO[CYCLOPENTYL[B]PYRIDINE-5,4′-PYRAN]-2-YL)AMINO)-4-(7-FLUOROIMIDAZOLE[1,2-A]PYRIDIN-3-YL)ISOINDOL-1-ONE], the IC50 (HPK1) was 7.7 nM and the IC50 (GLK) was over 30000 nM.

Work on N#Cc1ccn2c(-c3ccc(Nc4ccc5c(n4)CCCC54CCOCC4)c4c3CNC4=O)cnc2c1 [Compound 146, 3-(7-((2,3,5,6,7′,8′-HEXAHYDRO-6′-H-SPIRO[PYRAN-4,5′-[1,7]NAPHTHYRIDINE]-2′-YL)AMINO)-1-OXOISOINDOL-4-YL)IMIDAZO[1,2-A]PYRIDINE-7-CARBONITRILE] yielded an IC50 (HPK1) of 4.33 nM and an IC50 (GLK) of 1230 nM.

CC(C)NC1CC2(CCOCC2)c2ccc(Nc3ccc(-c4cnc5cc(OC(F)F)ccn45)c4c3C(=O)NC4)nc21 (centres unmarked) [Compound 179] gave an IC50 (HPK1) of 8.85 nM and an IC50 (GLK) of 970 nM.

Work on COCCNC1CC2(CCOCC2)c2ccc(Nc3ccc(-c4cnc5cc(F)ccn45)c4c3C(=O)NC4)nc21 (centres unmarked) [Compound 106] yielded an IC50 (HPK1) of 3.46 nM and an IC50 (GLK) of 697 nM.

With O=C1NCc2c(-c3cnc4cc(F)ccn34)ccc(Nc3ccc4c(n3)C(NCC(F)F)CC43CCOCC3)c21 (centres unmarked) [Compound 105] the IC50 (HPK1) was 5.26 nM, the Maximum induction factor [1] was 14.1 and the “EC3x” value [1] was 58 nM.

CN(C1CCOCC1)C1CC2(CCOCC2)c2ccc(Nc3ccc(-c4cnc5cc(F)ccn45)c4c3C(=O)NC4)nc21 (centres unmarked) [Compound 93] was tested, and the IC50 (HPK1) was 27 nM and the IC50 (GLK) was over 25000 nM.

Work on CN(C)C1CC2(CCOCC2)c2ccc(Nc3ccc(-c4cnc5cc(Cl)ccn45)c4c3C(=O)NC4)nc21 (centres unmarked) [Compound 42] yielded an IC50 (HPK1) of 4.62 nM and an IC50 (GLK) of 119 nM.

O=C1NCc2c(-c3cnc4cc(F)ccn34)ccc(Nc3ccc4c(n3)C(N3CC5(COC5)C3)CC43CCOCC3)c21 (centres unmarked) [Compound 88] gave an IC50 (HPK1) of 5.29 nM and an IC50 (GLK) of 208 nM.

O=C1NCc2c(-c3cnc4cc(F)ccn34)ccc(Nc3ccc4c(n3)C(N3CC(F)C3)CC43CCOCC3)c21 (centres unmarked) [Compound 67, 7-(7-(3-FLUOROAZETIDINE-1-YL)-2′,3′,5′,6,6′,7-HEXAHYDROSPIRO[B]PYRIDINE-5,4′-PYRAN]-2-YL)AMINO)-4-(7-FLUOROIMIDAZO[1,2-A]PYRIDIN-3-YL)ISOINDOLIN-1-ONE] showed an IC50 (HPK1) of 2.49 nM and an IC50 (GLK) of 136 nM.

CO[C@@H]1CCN(C2CC3(CCOCC3)c3ccc(Nc4ccc(-c5cnc6cc(F)ccn56)c5c4C(=O)NC5)nc32)C1 (some centres unmarked) [Compound 73] showed an IC50 (HPK1) of 3.48 nM and an IC50 (GLK) of 206 nM.

With CN(C)C1CC2(CCOCC2)c2ccc(Nc3ccc(-c4cnc5ncccn45)c4c3C(=O)NC4)nc21 (centres unmarked) [Compound 44] the IC50 (HPK1) was 3.05 nM and the IC50 (GLK) was 378 nM.

CN(C)C1COC2(CCC2)c2ccc(Nc3ccc(-c4cnc5cc(F)ccn45)c4c3C(=O)NC4)nc21 (centres unmarked) [Compound 173] showed an IC50 (HPK1) of 8.47 nM and an IC50 (GLK) of 3200 nM.

In the case of CN(C)C1CC2(CCOCC2)c2ccc(Nc3ccc(-c4cnc5n4CCOC5)c4c3C(=O)NC4)nc21 (centres unmarked) [Compound 165, 4-(5,6-DIHYDRO-8H-IMIDAZO[2,1-C][1,4]OXAZIN-3-YL)-7-((7-(DIMETHYLAMINO)-2′,3′,5′,6,6′,7-HEXAHYDROSPIRO[CYCLOPENTA[B]PYRIDINE-5,4′-PYRAN]-2-YL)AMINO)ISOINDOL-1-ONE], the IC50 (HPK1) is reported as 24.9 nM and the IC50 (GLK) is reported as 1190 nM.

For O=C1NCc2c(-c3cnc4cc(F)ccn34)ccc(Nc3ccc4c(n3)CN(CC3CC3)CC43CCOCC3)c21 [Compound 120], the IC50 (HPK1) was 11 nM and the IC50 (GLK) was over 3000 nM.

In the case of CC(C)NC1CC2(CCOCC2)c2ccc(Nc3ccc(-c4cnc5cc(F)ccn45)c4c3C(=O)NC4)nc21 (centres unmarked) [Compound 102], the IC50 (HPK1) is reported as 7.42 nM and the IC50 (GLK) is reported as over 30000 nM.

With COc1ccn2c(-c3ccc(Nc4ccc5c(n4)C(N(C)C)CC54CCOC4)c4c3CNC4=O)cnc2c1 (centres unmarked) [Compound 180, 7-((7-(DIMETHYLAMINO)-4′,5′,6,7-TETRAHYDRO-2′H-SPIRO[CYCLOPENTADIENYL[B]PYRIDINE-5,3′-FURAN]-2-YL)AMINO)-4-(7-METHOXYIMIDAZO[1,2-A]PYRIDIN-3-YL)ISOINDOLIN-1-ONE] the IC50 (HPK1) was 13.9 nM and the IC50 (GLK) was 3910 nM.

CC(C)(C)NC1CC2(CCOCC2)c2ccc(Nc3ccc(-c4cnc5cc(F)ccn45)c4c3C(=O)NC4)nc21 (centres unmarked) [Compound 101] showed an IC50 (HPK1) of 5.22 nM and an IC50 (GLK) of 858 nM.
